From patent US20080039362A1, “Combination drug therapy for reducing scar tissue formation” (Afmedica, Inc., priority 2006, published 2008) come the findings set out here.

Data set [1] has as its system Human platelets. Description: Platelet adhesion and aggregation on surfaces. The conditions noted are these: 30 minutes exposure; FIG. 21. The class given is cell-based. Here is the method: Platelet aggregation, used as a marker of polymer hemocompatibility, was visualized using human platelets that were exposed to PEA and a fibrinogen-coated surface for 30 minutes.

Data set [2] deals with Human coronary artery endothelial cells (EC). Here is the method:
Human peripheral blood monocytes were isolated by density centrifugation and magnetic separation (Miltenyi). Human platelets were purchased from the San Diego Blood Bank. Human coronary artery endothelial cells and aortic smooth muscle cells were purchased from Cambrex. Tissue culture polystyrene plates (TCPS; Falcon) with or without fibronectin coating (1 mg/ml) were used as controls.
Human coronary artery endothelial cells (EC) and aortic smooth muscle cells (SMC) were incubated on the polymers for 72 hours.

As to fibrinogen, in data set [1], the “platelet adhesion and aggregation” value is recorded as “aggregated as expected”.
With poly(ester amide) [PEA], the toxic effects result in data set [2] is reported as “no toxic effects”.
